Assay [1] has as its system ssDNA (DNA, single strand) CCAGTTCGTAGTAACCC
Description: luminescence response. Particulars: none stated in assay buffer; 10 mM Tris-HCl, pH 7.2; 1.5 µM complex; 5 µM DNA highest tested.

The test system of assay [2] is F21T (DNA, G4) GGGTTAGGGTTAGGGTTAGGG
Description: FRET melting. Particulars: 100 mM K+; potassium cacodylate, pH 7.0; 5 µM compound; 0.2 µM DNA.

Assay [3] relates to F10T (DNA, hairpin, hexaethylene glycol (HEG) linker between 8 and 9) TATAGCTATATAGCTATAT
Nature of the assay: FRET melting. Particulars: 10 mM Li+; lithium cacodylate, pH 7.4; 5 µM compound; 0.2 µM DNA.

Assay [4] concerns ds26 (DNA, duplex) CAATCGGATCGAATTCGATCCGATTG
Nature of the assay: G4-FID, thiazole orange displacement. Particulars: 100 mM KCl; 10 mM Tris-HCl, pH 7.2; 0.75 µM thiazole orange; <15% displaced at highest concentration 1.25 µM.

In assay [5] the test system is c-myc (DNA, G4) TGAGGGTGGGTAGGGTGGGTAA
Nature of the assay: G4-FID, thiazole orange displacement. The conditions noted are these: 100 mM KCl; 10 mM Tris-HCl, pH 7.2; 0.25 µM DNA; 0.50 µM thiazole orange displaced.

Assay [6] has the same test system. Description: luminescence response. Particulars: 20 mM KCl (annealing); 10 mM Tris-HCl, pH 7.2; 1.5 µM complex; 5 µM DNA; intensity ratio 7.5 over ds26, 5.5 over ssDNA.

As usually defined, the ΔTm is the change in melting temperature against a reference sample.

Each structure is given as a SMILES string.

As for `Cc1ccc(-c2ccc(C)cn2)nc1.[Ir+3].[c-]1ccccc1-c1nc2ccccc2[nH]1.[c-]1ccccc1-c1nc2ccccc2[nH]1`, the binding result in assay [1] was “no”. Further, the shift in melting temperature (ΔTm) in assay [2] is ~ 6.0 °C; in assay [3], 2 °C. In assay [4], this compound displayed a DC50 greater than 1.25 µM. This compound also returned a G4DC50 in assay [5] of 0.85 µM.

With `Cc1ccc(-c2ccc(C)cn2)nc1.[Ir+3].[c-]1ccccc1-c1nc2ccccc2s1.[c-]1ccccc1-c1nc2ccccc2s1`, in assay [6], the binding entry was “yes”.

Values taken from publication PMC5707507 (2015).
